The values that follow come from US20250232831A1, “METHOD FOR PREDICTING CELL MEMBRANE PERMEABILITY OF CYCLIC PEPTIDE” (FUJIFILM Corporation, priority 2022, published 2025).

The data set in a line: Evaluation of cell membrane permeability (permeation test, permeability coefficient Papp). As to conditions: dog. Type of data set: in vitro ADME.

Where two headings read alike, the source gives them in different places. Where a SMILES comes first, the peptide text is derived from it. Bridges are numbered along the chain shown (N, C = ends). [ ]: non-standard residue; d: D form. The star is where a group is joined. NMeL = CN[C@@H](CC(C)C)C(=O)O; hCys = N[C@@H](CCS)C(=O)O; NMeA = CN[C@@H](C)C(=O)O; Piperidide = C1CCN(*)CC1; dNMeA = CN[C@H](C)C(=O)O

Method: 300 μL of MDCK II cells (ECACC standard cell line) at a density of 1.0×10^6 cells/mL were seeded in an insert (dedicated for a 24-well plate, pore diameter: 3.0 μm, manufactured by Corning Incorporated), and cultured at 37° C. in a 5% CO2 environment. After 3 days, the electric resistance value of the cell layer (measuring device: Millicell (registered trademark) ERS-2 (manufactured by Millipore Corporation), electrode: ENDOHM-6 (manufactured by WPI, Inc.)) was measured, and it was confirmed that the cell layer had high barrier properties (>100 (2 Ω·cm^2).
The insert was washed by being immersed in a Hank's Balanced Salt Solution (HBSS) (phenol red-free), 200 μL of a sample prepared at 10 μmol/L/HBSS was added thereto, and the insert was allowed to stand in a low-adsorption 24-well plate containing 900 μL of HBSS (37° C., 5% CO2). After 2 hours, each liquid of the upper layer (apical) and the lower layer (basal) of the insert (10 μL for apical and 500 μL for basal) was recovered. After testing, no leakage was confirmed with Lucifer Yellow, which is a non-permeable fluorescent dye.
The device used was LC/MS/MS (triple quadrupole type). […]
Based on the calculation expression shown in the following expression, a permeability coefficient Papp, which represents the membrane permeability, was calculated from each quantitative value. […]

`CC(C)C[C@@H]1NC(=O)[C@H](C)N(C)C(=O)[C@@H](C)N(C)C(=O)[C@H](CC(C)C)N(C)C(=O)[C@H](CC(C)C)N(C)C(=O)[C@H](CC(C)C)NC(=O)[C@H](CC(C)C)N(C)C(=O)CSCC[C@@H](C(=O)N2CCCCC2)NC(=O)[C@H](C)N(C)C(=O)[C@H](C)N(C)C1=O` [Compound 1] ({CH2CO}-[NMeL]L[NMeL][NMeL][dNMeA][NMeA]L[NMeA][NMeA][hCys]-Piperidide; thioether N-10) showed a Papp A→B at 2 h, 10 μmol/L (MDCK) of 1.1 ×10⁻⁶ cm/s.

Regarding `CC(C)C[C@@H]1NC(=O)[C@H](CC(C)C)N(C)C(=O)CSCC[C@@H](C(=O)N2CCCCC2)NC(=O)[C@H](C)N(C)C(=O)[C@@H]2CCCN2C(=O)[C@H](CC(C)C)N(C)C(=O)[C@H](C)NC(=O)[C@H](C)N(C)C(=O)[C@H](CC(C)C)N(C)C(=O)[C@H](CC(C)C)N(C)C1=O` [Compound 2] ({CH2CO}-[NMeL]L[NMeL][NMeL][NMeA]A[NMeL]P[NMeA][hCys]-Piperidide; thioether N-10), under “MDCK II cells, 10 μmol/L sample in HBSS, 2 hours, 37° C., apical to basal, read-out: Cell membrane permeability Papp”, the Papp A→B at 2 h, 10 μmol/L worked out at 0.04 ×10⁻⁶ cm/s.
